Experiments:
[1] = test system: Plutella xylostella (Diamond Back Moth); assay: Activity against Plutella xylostella (diamond back moth), artificial diet; format: in vivo; settings: for percent effect (mortality or growth inhibition) at 200 ppm: 120 h, application rate 200 ppm, L2 larvae, 5 days after infestation, read-out: effect in at least one of the two categories (mortality or growth inhibition)
Protocol: (§1) 24-well microtiter plates with artificial diet were treated with aqueous test solutions prepared from 10′000 ppm DMSO stock solutions by pipetting. After drying, the plates were infested with L2 larvae (10 to 15 per well). The samples were assessed for mortality and growth inhibition in comparison to untreated samples 5 days after infestation.

[2] = test system: Euschistus heros (Neotropical Brown Stink Bug); assay: Activity against Euschistus heros (neotropical brown stink bug), soybean leaves sprayed; format: in vivo; settings: 120 h, application rate 200 ppm, N2 nymphs, 5 days after infestation, read-out: effect in at least one of the two categories (mortality or growth inhibition)
Protocol: Soybean leaves on agar in 24-well microtiter plates were sprayed with aqueous test solutions prepared from 10′000 ppm DMSO stock solutions. After drying the leaves were infested with N2 nymphs. The samples were assessed for mortality and growth inhibition in comparison to untreated samples 5 days after infestation.

[3] = test system: Myzus persicae (Green Peach Aphid); assay: Activity against Myzus persicae (green peach aphid): feeding/contact activity; format: in vivo; settings: for mortality at 200 ppm: Myzus persicae, 144 h, application rate 200 ppm, feeding/contact, mixed ages, 6 days after infestation
Protocol: Sunflower leaf discs were placed onto agar in a 24-well microtiter plate and sprayed with aqueous test solutions prepared from 10′000 ppm DMSO stock solutions. After drying, the leaf discs were infested with an aphid population of mixed ages. The samples were assessed for mortality 6 days after infestation.

[4] = test system: Myzus persicae (Green Peach Aphid); assay: Activity against Myzus persicae (green peach aphid): systemic activity; format: in vivo; settings: for mortality at 24 ppm: Myzus persicae, 144 h, test rate 24 ppm, systemic, pea seedling roots in test solution, 6 days
Protocol: Roots of pea seedlings infested with an aphid population of mixed ages were placed directly into aqueous test solutions prepared from 10′000 DMSO stock solutions. The samples were assessed for mortality 6 days after placing seedlings into test solutions.

[5] = test system: Bemisia tabaci (Cotton White Fly); assay: Activity against Bemisia tabaci (cotton white fly); format: in vivo; settings: 144 h, application rate 200 ppm, adult white flies, 6 days after incubation
Protocol: Cotton leaf discs were placed on agar in 24-well microtiter plates and sprayed with aqueous test solutions prepared from 10′000 ppm DMSO stock solutions. After drying the leaf discs were infested with adult white flies. The samples were checked for mortality 6 days after incubation.

[6] = test system: Spodoptera littoralis (Egyptian Cotton Leaf Worm); assay: Activity against Spodoptera littoralis (Egyptian cotton leaf worm), cotton leaf discs sprayed; format: in vivo; settings: for percent control (mortality, anti-feedant effect or growth inhibition) at 200 ppm: foliar, 72 h, application rate 200 ppm, L1 larvae, 3 days after infestation, read-out: control (mortality, anti-feeding effect or growth inhibition)
Protocol: Cotton leaf discs were placed onto agar in 24-well microtiter plates and sprayed with aqueous test solutions prepared from 10′000 ppm DMSO stock solutions. After drying the leaf discs were infested with five L1 larvae. The samples were assessed for mortality, anti-feeding effect, and growth inhibition in comparison to untreated samples 3 days after infestation. Control of Spodoptera littoralis by a test sample is given when at least one of the categories mortality, anti-feedant effect, and growth inhibition is higher than the untreated sample.

[7] = test system: Diabrotica balteata (corn root worm); assay: Activity against Diabrotica balteata (corn root worm), maize sprouts sprayed; format: in vivo; settings: for percent effect (mortality or growth inhibition) at 200 ppm: 96 h, application rate 200 ppm, L2 larvae, 4 days after infestation, read-out: effect in at least one of the two categories (mortality or growth inhibition)
Protocol: as §1, with “Maize sprouts placed onto an agar layer in 24-well” for “24-well”, “plates” for “plates with artificial diet”, “spraying.” for “pipetting.”, “(6” for “(10”, “10” for “15”, “4” for “5”

[8] = test system: Tetranychus urticae (Two-Spotted Spider Mite); assay: Activity against Tetranychus urticae (two-spotted spider mite); format: in vivo; settings: 192 h, application rate 200 ppm, mixed population (mobile stages), 8 days after infestation
Protocol: Bean leaf discs on agar in 24-well microtiter plates were sprayed with aqueous test solutions prepared from 10′000 ppm DMSO stock solutions. After drying the leaf discs were infested with a mite population of mixed ages. The samples were assessed for mortality on mixed population (mobile stages) 8 days after infestation.

[9] = test system: Franklinella occidentalis (Western Flower Thrips); assay: Activity against Franklinella occidentalis (western flower thrips); format: in vivo; settings: Frankliniella occidentalis, 168 h; application rate 200 ppm; mixed ages; 7 days after infestation
Protocol: Sunflower leaf discs were placed on agar in 24-well microtiter plates and sprayed with aqueous test solutions prepared from […] stock solutions. After drying the leaf discs were infested with a Frankliniella population of mixed ages. The samples were assessed for mortality 7 days after infestation.

[10] = test system: Spodoptera littoralis (Egyptian Cotton Leaf Worm); assay: Activity against Spodoptera littoralis (Egyptian cotton leaf worm), uptake via lettuce roots from agar; format: in vivo; settings: 144 h, test rate 12.5 ppm, 6 days after infestation, read-out: effect in at least one of the three categories (mortality, anti-feeding, or growth inhibition)
Description: Test compounds were applied by pipette from 10′000 ppm DMSO stock solutions into 24-well plates and mixed with agar. Lettuce seeds were placed onto the agar and the multi well plate was closed by another plate which contained also agar. After 7 days the compound was absorbed by the roots and the lettuce grew into the lid plate. The lettuce leaves were then cut off into the lid plate. Spodoptera eggs were pipetted through a plastic stencil onto a humid gel blotting paper and the lid plate was closed with it. The samples were assessed for mortality, anti-feedant effect and growth inhibition in comparison to untreated samples 6 days after infestation.

[11] = concentration 12.5 ppm, listed as drawing 143

Row | SMILES | percent effect (mortality or growth inhibition) at 200 ppm [1] [%] | percent effect (mortality or growth inhibition) at 200 ppm [2] [%] | mortality at 200 ppm [3] [%] | mortality at 24 ppm [4] [%] | mortality at 200 ppm [5] [%] | percent control (mortality, anti-feedant effect or growth inhibition) at 200 ppm [6] [%] | percent effect (mortality or growth inhibition) at 200 ppm [7] [%] | mortality at 200 ppm [8] [%] | mortality at 200 ppm [9] [%] | Mortality (%) [1, 11] [%] | Mortality (%) ([3]; Myzus persicae (feeding/contact), concentration 50 ppm, listed as drawing 143) | Mortality (%) ([4]; Myzus persicae (systemic), concentration 1.5 ppm, listed as drawing 143) | percent effect (mortality, anti-feeding or growth inhibition) at 12.5 ppm [10] [%] | Mortality (%) [6, 11] [%] | Mortality (%) ([7]; concentration 50 ppm, listed as drawing 143) | melting point [°C]
1 | CCS(=O)(=O)c1ccc(-n2cncn2)nc1-c1nc2cc(C(F)(F)F)n(OC)c(=O)c2n1C [Compound A3, 2-[3-ethylsulfonyl-6-(1,2,4-triazol-1-yl)-2-pyridyl]-5-methoxy-3-methyl-6-(trifluoromethyl)imidazo[4,5-c]pyridin-4-one] | ≥ 80 | ≥ 80 | ≥ 80 | ≥ 80 | ≥ 80 | ≥ 80 | ≥ 80 | ≥ 80 |  |  |  |  |  |  |  | 
2 | CCS(=O)(=O)c1ccc(N)nc1-c1nc2cc(C(F)(F)F)n(OC)c(=O)c2n1C [Compound A13, 2-(6-amino-3-ethylsulfonyl-2-pyridyl)-5-methoxy-3-methyl-6-(trifluoromethyl)imidazo[4,5-c]pyridin-4-one] | ≥ 80 | ≥ 80 | ≥ 80 | ≥ 80 | ≥ 80 | ≥ 80 | ≥ 80 |  |  |  |  |  |  |  |  | 
3 | CCS(=O)(=O)c1cc(C(C)(C)C#N)cnc1-c1nc2cc(C(F)(F)F)n(OC)c(=O)c2n1C [Compound A12, 2-[5-ethylsulfonyl-6-[5-methoxy-3-methyl-4-oxo-6-(trifluoromethyl)imidazo[4,5-c]pyridin-2-yl]-3-pyridyl]-2-methyl-propanenitrile] | ≥ 80 | ≥ 80 | ≥ 80 | ≥ 80 | ≥ 80 | ≥ 80 | ≥ 80 |  | ≥ 80 |  |  |  |  |  |  | 
4 | CCS(=O)(=O)c1cccnc1-c1nc2cc(C(F)(F)F)n(OC)c(=O)c2n1C [Compound A2, 2-(3-ethylsulfonyl-2-pyridyl)-5-methoxy-3-methyl-6-(trifluoromethyl) imidazo[4,5-c]pyridin-4-one] | ≥ 80 | ≥ 80 | ≥ 80 | ≥ 80 |  | ≥ 80 | ≥ 80 |  |  | 80 | 100 | 80 | ≥ 80 | 80 | 100 | 
5 | CCS(=O)(=O)c1cc(C2(C#N)CC2)cnc1-c1nc2cc(C(F)(F)F)n(OC)c(=O)c2n1C [Compound A8, 1-[5-ethylsulfonyl-6-[5-methoxy-3-methyl-4-oxo-6-(trifluoromethyl)imidazo[4,5-c]pyridin-2-yl]-3-pyridyl]cyclopropanecarbonitrile] | ≥ 80 | ≥ 80 | ≥ 80 | ≥ 80 | ≥ 80 | ≥ 80 | ≥ 80 | ≥ 80 |  |  |  |  |  |  |  | 
6 | CCS(=O)(=O)c1ccc(Cl)nc1-c1nc2cc(C(F)(F)F)n(OC)c(=O)c2n1C [Compound A11, 2-(6-chloro-3-ethylsulfonyl-2-pyridyl)-5-methoxy-3-methyl-6-(trifluoromethyl)imidazo[4,5-c]pyridin-4-one] |  |  |  |  |  |  |  |  |  |  |  |  |  |  |  | 195 to 197
7 | CCS(=O)(=O)c1cc(C2(C#N)CC2)ccc1-c1nc2cc(C(F)(F)F)n(OC)c(=O)c2n1C [Compound A9, 1-[3-ethylsulfonyl-4-[5-methoxy-3-methyl-4-oxo-6-(trifluoromethyl)imidazo[4,5-c]pyridin-2-yl)phenyl]cyclopropanecarbonitrile] | ≥ 80 | ≥ 80 | ≥ 80 | ≥ 80 | ≥ 80 | ≥ 80 | ≥ 80 | ≥ 80 |  |  |  |  |  |  |  | 
